By inhibition is commonly meant how much of the control response was suppressed. A high value points to strong suppression.

This assay deals with parathyroid hormone stimulated bone resorption in mouse calvaria. The assay is described as follows: parathyroid hormone stimulated bone resorption inhibition activity in vitro in mouse calvaria (antiresorptive activity). It counts as cell-based. To be noted: PTH stimulated.

Regarding `CCN(CC)P(=O)(OC(C)C)C(Cl)(Cl)P(=O)(O)O` (centres unmarked) [(dichloromethylene)bisphosphonic acid P-monoisopropyl ester P-mono(diethylamide)], for the setting “100 μM”, the “Antiresorptive activity, Inhibition of resorption (%)” value is listed as 44%.

Consider `O=P(O)(O)C(Cl)(Cl)P(=O)(O)O` [Clodronate, reference compound], for which the inhibition at 100 µM was found to be 43%.

`CCN(CC)P(=O)(O)C(Cl)(Cl)P(=O)(O)O` [(dichloromethylene)bisphosphonic acid mono(diethylamide)] returned an inhibition at 100 µM of 43%.

Turning to `CCN(CC)P(=O)(O)C(Cl)(Cl)P(=O)(N(CC)CC)N(CC)CC` [(dichloromethylene)bisphosphonic acid tris(diethylamide)], testing at 100 µM gave an inhibition of 44%.

In turn, `CCN(CC)P(=O)(O)C(Cl)(Cl)P(=O)(O)N(CC)CC` [(dichloromethylene)bisphosphonic acid P,P'-bis(diethylamide)] displayed an inhibition at 100 µM of 38%.

These data come from patent US5442101A, “Methylenebisphosphonic acid derivatives” (Leiras Oy, priority 1990, dated 1995).
